Patent US20240115557A1, “INHIBITORS OF RNA-GUIDED NUCLEASES AND USES THEREOF” (The Brigham and Women's Hospital, Inc., priority 2022, published 2024)

How the values were obtained:
[1] = target: T1, SaCas9 (Staphylococcus aureus, UniProt J7RUA5); experiment: eGFP secondary assay, SaCas9; type: cell-based; settings: for Z score Avg Z: average of two replicates, Zscore>3 selected as hit; for Normalized Inhibition Rep 1: replicate 1; for Normalized eGFP Disruption Rep 1: replicate 1, % eGFP disruption; for Z score Rep1: replicate 1, Zscore>3 selected as hit; for Normalized Inhibition Rep 2: replicate 2; for Normalized eGFP Disruption Rep 2: replicate 2, % eGFP disruption; for Z score Rep 2: replicate 2, Zscore>3 selected as hit
T1 sequence (J7RUA5 1-1053): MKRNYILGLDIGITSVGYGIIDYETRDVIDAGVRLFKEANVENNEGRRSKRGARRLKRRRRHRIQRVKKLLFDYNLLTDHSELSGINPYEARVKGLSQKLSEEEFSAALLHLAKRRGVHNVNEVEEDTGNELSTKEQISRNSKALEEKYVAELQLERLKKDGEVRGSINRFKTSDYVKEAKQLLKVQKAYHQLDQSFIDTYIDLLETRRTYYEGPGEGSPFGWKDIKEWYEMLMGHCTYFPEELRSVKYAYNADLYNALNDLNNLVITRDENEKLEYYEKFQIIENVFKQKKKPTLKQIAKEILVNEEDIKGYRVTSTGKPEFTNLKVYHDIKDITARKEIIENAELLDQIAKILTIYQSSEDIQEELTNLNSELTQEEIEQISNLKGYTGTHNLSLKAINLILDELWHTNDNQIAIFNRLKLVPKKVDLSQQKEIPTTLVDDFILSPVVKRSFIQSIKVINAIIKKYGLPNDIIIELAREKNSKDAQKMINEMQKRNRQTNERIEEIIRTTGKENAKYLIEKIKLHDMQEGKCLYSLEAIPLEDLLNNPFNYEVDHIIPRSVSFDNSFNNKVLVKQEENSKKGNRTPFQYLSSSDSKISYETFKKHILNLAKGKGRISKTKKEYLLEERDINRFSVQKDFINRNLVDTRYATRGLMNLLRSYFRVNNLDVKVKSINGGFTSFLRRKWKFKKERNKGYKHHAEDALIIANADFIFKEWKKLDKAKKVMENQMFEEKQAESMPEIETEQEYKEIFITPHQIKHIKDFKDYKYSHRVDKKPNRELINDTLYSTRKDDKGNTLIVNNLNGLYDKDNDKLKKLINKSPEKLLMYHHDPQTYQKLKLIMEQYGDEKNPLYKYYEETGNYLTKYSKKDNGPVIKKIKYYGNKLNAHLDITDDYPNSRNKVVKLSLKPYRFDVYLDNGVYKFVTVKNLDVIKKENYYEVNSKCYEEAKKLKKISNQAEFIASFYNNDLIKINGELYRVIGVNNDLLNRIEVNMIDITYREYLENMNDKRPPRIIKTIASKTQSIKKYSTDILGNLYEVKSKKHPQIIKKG
Method: All hit compounds were moved forward into the secondary and tertiary screens, in which they were tested in cell-based assays. An eGFP assay is used to determine hits in cells as the secondary screen (eGFP assay).
The eGFP secondary assay evaluated the hits identified from the primary screen. The compounds were judged off the % eGFP disruption to determine the Cas9 inhibition and the assay Zscore. […] The hits from the secondary screens will be processed through tertiary screens of dose studies and HiBit Assay as detailed herein.

[2] = target: SpCas9 (Streptococcus pyogenes serotype M1, UniProt Q99ZW2); experiment: eGFP disruption assay, SpCas9, U2OS.eGFP.PEST cells; type: cell-based; settings: for Z score Rep1 / Normalized Z rep1: replicate 1; for SpCas9 eGFP disruption Rep1: replicate 1, raw readout; for Z socre Rep2 / Normalized Z rep2: replicate 2; for SpCas9 eGFP disruption Rep2: replicate 2, raw readout
In short: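 U2OS.eGFP.PEST cells nucleofected with 300 ng SpCas9 plasmid plus 30 ng eGFP-targeting gRNA plasmid, or with SpCas9 RNP (10 pmol protein, 12 pmol gRNA). Cells then incubated 24 h with compound (20 μM in screening). Inhibition is read as rescue of eGFP fluorescence in paraformaldehyde-fixed, nuclear-stained cells.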

[3] = target: T1, SaCas9; experiment: Strand displacement assay, SaCas9 primary screen; type: biochemical; settings: for Auto Zscore Rep 1 / Auto Zscore Rep 2 / Normalized Zscore Rep 1 / Normalized Zscore Rep 2: SaCas9 primary screen; for Auto Zscore Rep 1 / Normalized Zscore Rep 1: replicate 1; for Auto Zscore Rep 2 / Normalized Zscore Rep 2: replicate 2; for Normalized Zscore Rep 1 / Normalized Zscore Rep 2: weaker potential hits; for 3 sigma Hit: flag 1 = hit at 3 sigma
In short: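 Cas9 RNP (1:1.2 protein:gRNA) pre-formed in 20 mM Tris-HCl pH 7.5, 100 mM KCl, 5 mM MgCl2, used at 10 nM (2× stock) with Alexa-Fluor 647 substrate/quencher at 1 nM/5 nM (2× stock). Reaction ran 2.5 h at 37°C; strand displacement read as fluorescence. Hits called by Z-score: 3–5σ weak, >5σ strong.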

[4] = Cas9 = lower control, Ctrl = upper control
[5] = normalized, lower control about 0, upper control about 1

Chain of SpCas9 (Q99ZW2 whole entry): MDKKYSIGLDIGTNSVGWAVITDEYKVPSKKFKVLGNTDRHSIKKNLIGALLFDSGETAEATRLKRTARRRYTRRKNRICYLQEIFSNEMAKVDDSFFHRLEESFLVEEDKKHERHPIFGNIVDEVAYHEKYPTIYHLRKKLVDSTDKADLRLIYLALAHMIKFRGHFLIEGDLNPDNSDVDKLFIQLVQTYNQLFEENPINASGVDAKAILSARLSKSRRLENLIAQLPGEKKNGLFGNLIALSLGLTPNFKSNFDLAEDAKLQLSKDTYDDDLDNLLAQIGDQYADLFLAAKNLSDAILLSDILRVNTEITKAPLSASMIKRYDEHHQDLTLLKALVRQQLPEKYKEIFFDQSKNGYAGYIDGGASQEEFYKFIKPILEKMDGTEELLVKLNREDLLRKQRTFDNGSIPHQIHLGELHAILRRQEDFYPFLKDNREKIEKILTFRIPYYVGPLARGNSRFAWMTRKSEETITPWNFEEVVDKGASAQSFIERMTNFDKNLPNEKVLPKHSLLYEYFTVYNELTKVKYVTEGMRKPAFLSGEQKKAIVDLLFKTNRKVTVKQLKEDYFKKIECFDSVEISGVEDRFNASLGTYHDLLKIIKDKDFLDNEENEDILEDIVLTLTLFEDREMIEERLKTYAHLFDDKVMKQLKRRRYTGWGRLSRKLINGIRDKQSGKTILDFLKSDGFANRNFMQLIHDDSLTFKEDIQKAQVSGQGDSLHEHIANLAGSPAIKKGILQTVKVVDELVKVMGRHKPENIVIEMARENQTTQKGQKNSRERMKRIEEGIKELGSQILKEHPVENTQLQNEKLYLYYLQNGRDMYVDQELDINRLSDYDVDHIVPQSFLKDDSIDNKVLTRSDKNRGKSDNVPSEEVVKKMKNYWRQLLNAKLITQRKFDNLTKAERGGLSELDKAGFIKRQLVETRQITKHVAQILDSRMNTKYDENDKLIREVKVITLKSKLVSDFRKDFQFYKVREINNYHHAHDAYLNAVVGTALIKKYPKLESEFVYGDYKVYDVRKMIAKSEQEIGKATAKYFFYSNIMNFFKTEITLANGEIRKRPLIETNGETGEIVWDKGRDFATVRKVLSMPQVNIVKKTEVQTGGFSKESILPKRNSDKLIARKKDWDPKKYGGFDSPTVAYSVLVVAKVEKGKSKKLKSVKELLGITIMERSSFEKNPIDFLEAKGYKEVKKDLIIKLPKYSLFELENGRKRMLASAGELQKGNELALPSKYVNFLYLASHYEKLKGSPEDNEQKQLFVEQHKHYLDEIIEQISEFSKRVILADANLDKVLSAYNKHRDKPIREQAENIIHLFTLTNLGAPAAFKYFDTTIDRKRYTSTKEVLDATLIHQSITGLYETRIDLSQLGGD

SMILES	Z score Avg Z [1]	Normalized Inhibition Rep 1 [1]	Normalized eGFP Disruption Rep 1 [1]	Z score Rep1 [1]	Normalized Inhibition Rep 2 [1]	Normalized eGFP Disruption Rep 2 [1]	Z score Rep 2 [1]	also measured
Cc1occc1-c1nnc2sc(-c3c[nH]c4ccccc34)nn12 [Compound D727-0786]	5.097	57.282	42.718	8.674	12.722	87.278	1.519	Z score Rep1 [2]: 0.48; SpCas9 eGFP disruption Rep1 [2, 4]: 68.596; Normalized Z rep1 [2, 5]: 0.07; Z socre Rep2 [2]: 1.91; SpCas9 eGFP disruption Rep2 [2, 4]: 68.839; Normalized Z rep2 [2, 5]: 0.20
C=CC1=C(C(=O)O)N2C(=O)[C@@H](NC(=O)C(=NOCC(=O)O)c3csc(N)n3)[C@H]2SC1.O [SAM001246816]	3.731	37.117	62.883	4.745	21.891	78.109	2.717	Z score Rep1 [2]: 0.17; SpCas9 eGFP disruption Rep1 [2, 4]: 76.555; Normalized Z rep1 [2, 5]: 0.03; Z socre Rep2 [2]: −1.15; SpCas9 eGFP disruption Rep2 [2, 4]: 74.015; Normalized Z rep2 [2, 5]: −0.12
CNC(=O)c1sc(=S)n2c1[nH]c(=O)c1cc(Br)ccc12 [F083-0285]	3.318	30.708	69.292	3.635	22.819	77.181	3.002	Normalized Z rep1 [2]: −0.25; Z score Rep1 [2]: −1.78; SpCas9 eGFP disruption Rep1 [2]: 61.126; Normalized Z rep2 [2]: −0.48; Z socre Rep2 [2]: −4.46; SpCas9 eGFP disruption Rep2 [2]: 49.642
O=C(NCCCN1CCC(N2CCCCC2)CC1)C1=Cc2sc3c(c2CS1)CCCC3 [E722-2652]	5.750	43.522	56.478	5.564	47.827	52.173	5.937	Auto Zscore Rep 1 [3]: 1.567; Auto Zscore Rep 2 [3]: 0.3807; Normalized Zscore Rep 1 [3]: 0.4606; Normalized Zscore Rep 2 [3]: 0.3192; 3 sigma Hit [3]: 1; 5 sigma Hit ([3]; flag 1 = hit at 5 sigma): 1
NC(=O)c1sc(=S)n(Cc2ccccc2)c1N [Compound F128-0030]	8.704	70.438	29.562	9.005	67.693	32.307	8.402	Auto Zscore Rep 1 [3]: −0.4371; Auto Zscore Rep 2 [3]: 0.1928; Normalized Zscore Rep 1 [3]: 0.187; Normalized Zscore Rep 2 [3]: 0.143; 3 sigma Hit [3]: 1
Cc1cc(-c2nn3c(-c4cccc(F)c4)nnc3s2)c2ccccc2n1 [D727-0417]	3.995	33.326	66.674	5.046	24.659	75.341	2.944	
Cc1ccc(C)c(Nc2nc(C(N)=O)c(NC(=O)c3ccc(C)nc3Cl)s2)c1 [D686-0195]	6.110	29.879	70.121	4.525	64.458	35.542	7.696	
Cc1ccc(-n2ncc(C(=O)Nc3ccc(Br)cc3)c2C2CCNCC2)cc1 [Compound E922-0258]	7.627	63.301	36.699	7.494	59.004	40.996	7.761	
Cc1nn(-c2ccccc2)c(C)c1CCc1nnc2sc(-c3ccc(N(C)C)cc3)nn12 [D727-0717]	6.053	33.284	66.716	5.040	59.171	40.829	7.065	
CCCN(CCC)C(=O)C1CCCN(c2ccc(-c3ccccc3)nn2)C1 (centres unmarked) [F305-0061]	5.220	39.473	60.527	4.673	43.845	56.155	5.767	
CC1(C(=O)NC2CCCCC2)Cn2c(cc3ccccc32)C(=O)N1Cc1ccccc1 (centres unmarked) [E234-0008]	5.237	50.589	49.411	5.989	34.101	65.899	4.485	
CCCCn1nnnc1NCc1ccc2c(c1)n(C)c(=O)n2C [Compound D664-0047]	4.425	21.201	78.799	3.210	47.229	52.771	5.639	
